Experimental data: PubChem BioAssay AID1919015 (Molecular Pharmacology Branch, DTP, NCI, 2023)

Test system: OVCAR-5 complex spheroids with HUVEC/MSC, viability, % test/control
Assay: Anticancer human tumor OVCAR-5 cell line growth inhibition [AhR];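 further: spheroids exposed to compounds for 7 days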;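 on viability, T/C: 100% = DMSO vehicle control wells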
Conditions: for IC50: curve of first compound; for viability, T/C: stronger effect = lower value
Description: Multicellular complex tumor spheroid response to aryl hydrocarbon receptor antagonists in combination with a variety of drugs and investigational agents in selected tumor cell lines
The current study was undertaken to assess response to aryl hydrocarbon receptor antagonists in combination with standard-of-care drugs and investigational agents in solid tumor complex spheroid models. Complex spheroids include a stromal component modeled by human endothelial cells (HUVEC) and fibroblasts modeled by human mesenchymal stem cells (MSCs). The concentration ranges selected for each drug and investigational agent were based upon clinically achievable concentrations if the clinical Cmax of the agent was known.
Compounds. The drugs and investigational agents: BAY 2416964 (NSC825713), GNF351 (NSC835774), CH-223191 (NSC835775), CPI-455 (NSC825282), aza-TdCyd (NSC777586), decitabine (NSC127716), belinostat (NSC758774), entinostat (NSC756642), pevonedistat (NSC761192), tazemetostat (NSC777109), talazoparib (NSC765396), olaparib (NSC753686), selinexor (NSC780203), nedisertib (M3814, NSC802822), bortezomib (NSC756655), venetoclax (NSC766270), doxorubicin (NSC123127), elimusertib (BAY189344, NSC800525), ceralasertib (AZD6738, NSC777638), TAK-243 (NSC785004), alisertib (NSC759677), etoposide (NSC141540), topotecan (NSC609699), eribulin (NSC707389), gemcitabine (NSC613327), carboplatin (NSC241240), cisplatin (NSC119875), and SN-38 (NSC673596) were obtained from the National Cancer Institute (NCI) Developmental Therapeutics Program Chemical Repository (32). The FDA-approved anticancer drug set is available from the Developmental Therapeutics Program at https://dtp.cancer.gov/organization/dscb/obtaining/available plates.htm. […] The stock solutions were prepared in dimethyl sulfoxide (DMSO, Sigma-Aldrich, St. Louis, MO, cat. D2650), except for the platinum compounds which were prepared in saline (Quality Biological, Gaithersburg, MD, cat. 114-055-101), at 800-fold the tested concentration and stored at -70 degrees C prior to their use. All drugs and investigational agents were tested over a range starting from a high concentration at or near the clinical Cmax and decreasing in half-log increments. If the clinical Cmax for an agent had not been determined, the highest concentration tested was 10 microM (Table 1).
Cell Culture. All cells were maintained in an incubator at 37 degrees C and 5% CO2 with 95% humidity. The PDC lines were cultured according to standard operating procedures established by the NCI PDMR (https://pdmr.cancer.gov). Briefly, all PDCs were thawed and cultured in Matrigel-coated flasks prepared with a working solution of 1X Ham's F-12 nutrient mix, without supplementation (Invitrogen, Waltham, MA, cat. 11765054), 100 U/mL penicillin-streptomycin (Invitrogen, cat. 15140122), and 2.5% Matrigel (Corning Inc., Corning, NY, cat. 354248) for the first three passages. All PDCs were cultured in complete DMEM/F-12 media containing advanced DMEM/F-12 (Invitrogen, cat. 12634028), 4.9% defined fetal bovine serum, heat inactivated (HyClone Laboratories Inc., Logan, UT, cat. SH30070.03HI), 389 ng/mL hydrocortisone (Sigma-Aldrich, cat. H4001), 9.7 ng/mL human EGF recombinant protein (Invitrogen, cat. PHG0313), 23.4 microg/mL adenine (Sigma-Aldrich, cat. A2786), 97.3 U/mL penicillin-streptomycin (Invitrogen, cat. 15140122), 1.9 mM L-glutamine (Invitrogen, cat. 25030081), and 9.7 microM Y-27632 dihydrochloride (Tocris Bioscience, Bristol, United Kingdom, cat. 1254). The PDCs were cultured in complete DMEM/F12 media without 10 microM Y-27632 dihydrochloride for at least two passages prior to the screen. The established cell lines NCI-H1341 and […] were cultured in DMEM/F-12, HEPES (Invitrogen, cat. 11330032), 5% defined fetal bovine serum (HyClone Laboratories Inc., cat. SH30070.03), ITS premix universal culture supplement [insulin (5 microg/mL), transferrin (5 microg/mL), and selenious acid (5 ng/mL)] […]

[1] = second compound 0.1 µM, first compound 0.0316 µM
[2] = second compound 0.1 µM, first compound 0.1 µM
[3] = second compound 0.1 µM, first compound 0.316 µM
[4] = second compound 0.1 µM, first compound 1 µM
[5] = second compound 0.1 µM, first compound 3.16 µM
[6] = second compound 0.1 µM, first compound 10 µM
[7] = second compound 0.316 µM, first compound 0.0316 µM
[8] = second compound 0.316 µM, first compound 0.1 µM
[9] = second compound 0.316 µM, first compound 0.316 µM
[10] = second compound 0.316 µM, first compound 1 µM
[11] = second compound 0.316 µM, first compound 3.16 µM
[12] = second compound 0.316 µM, first compound 10 µM
[13] = second compound 1 µM, first compound 0.0316 µM
[14] = second compound 1 µM, first compound 0.1 µM
[15] = second compound 1 µM, first compound 0.316 µM
[16] = second compound 1 µM, first compound 1 µM
[17] = second compound 1 µM, first compound 3.16 µM
[18] = second compound 1 µM, first compound 10 µM
[19] = second compound 3.16 µM, first compound 0.0316 µM
[20] = second compound 3.16 µM, first compound 0.1 µM
[21] = second compound 3.16 µM, first compound 0.316 µM
[22] = second compound 3.16 µM, first compound 1 µM
[23] = second compound 3.16 µM, first compound 3.16 µM
[24] = second compound 3.16 µM, first compound 10 µM
[25] = second compound 10 µM, first compound 0.0316 µM
[26] = second compound 10 µM, first compound 0.1 µM
[27] = second compound 10 µM, first compound 0.316 µM
[28] = second compound 10 µM, first compound 1 µM
[29] = second compound 10 µM, first compound 3.16 µM
[30] = second compound 10 µM, first compound 10 µM

Structure (SMILES) | IC50 (second compound 0.1 µM) [nM] | IC50 (second compound 0.316 µM) [nM] | IC50 (second compound 1 µM) [nM] | IC50 (second compound 3.16 µM) [nM] | IC50 (second compound 10 µM) [nM] | viability, T/C [1] [%] | viability, T/C [2] [%] | viability, T/C [3] [%] | viability, T/C [4] [%] | viability, T/C [5] [%] | viability, T/C [6] [%] | viability, T/C [7] [%] | viability, T/C [8] [%] | viability, T/C [9] [%] | viability, T/C [13] [%] | viability, T/C [14] [%] | viability, T/C [19] [%] | viability, T/C [20] [%] | viability, T/C [25] [%] | viability, T/C [26] [%] | also measured
COc1cc(Nc2ncc3c(n2)-c2ccc(Cl)cc2C(c2c(F)cccc2OC)=NC3)ccc1C(=O)O + CC(CO)NC(=O)c1cc(-c2ccc(Cl)cc2)nn(-c2cnn(C)c2)c1=O | 1820 | 2430 | 3710 | 1760 | 8330 | 88.6 | 84.8 | 62.4 | 55.9 | 48.1 | 43.3 | 87.3 | 84.4 | 65.7 | 92.1 | 87 | 79.4 | 81.8 | 75.5 | 72.8 | viability, T/C [10]: 60%; viability, T/C [11]: 47.9%; viability, T/C [12]: 38.7%; viability, T/C [15]: 69.5%; viability, T/C [16]: 60.1%; viability, T/C [17]: 54%; viability, T/C [18]: 41.8%; viability, T/C [21]: 65.4%; viability, T/C [22]: 55%; viability, T/C [23]: 46.7%; viability, T/C [24]: 42.4%; viability, T/C [27]: 62.9%; viability, T/C [28]: 59%; viability, T/C [29]: 51.8%; viability, T/C [30]: 50.4%
Cn1ncnc1C1c2n[nH]c(=O)c3cc(F)cc(c23)NC1c1ccc(F)cc1 (stereo not given) + CC(CO)NC(=O)c1cc(-c2ccc(Cl)cc2)nn(-c2cnn(C)c2)c1=O | > 100 | > 100 | > 100 | > 100 | > 100 | 104 | 101 | – | – | – | – | 105 | 99.7 | – | 112 | 108 | 101 | 100 | 93.5 | 94.6 | viability, T/C (second compound 0.1 µM, first compound 0.000316 µM): 104%; viability, T/C (second compound 0.1 µM, first compound 0.001 µM): 105%; viability, T/C (second compound 0.1 µM, first compound 0.00316 µM): 105%; viability, T/C (second compound 0.1 µM, first compound 0.01 µM): 105%; viability, T/C (second compound 0.316 µM, first compound 0.000316 µM): 104%; viability, T/C (second compound 0.316 µM, first compound 0.001 µM): 110%; viability, T/C (second compound 0.316 µM, first compound 0.00316 µM): 106%; viability, T/C (second compound 0.316 µM, first compound 0.01 µM): 107%; viability, T/C (second compound 1 µM, first compound 0.000316 µM): 112%; viability, T/C (second compound 1 µM, first compound 0.001 µM): 114%; viability, T/C (second compound 1 µM, first compound 0.00316 µM): 112%; viability, T/C (second compound 1 µM, first compound 0.01 µM): 108%; viability, T/C (second compound 3.16 µM, first compound 0.000316 µM): 106%; viability, T/C (second compound 3.16 µM, first compound 0.001 µM): 103%; viability, T/C (second compound 3.16 µM, first compound 0.00316 µM): 103%; viability, T/C (second compound 3.16 µM, first compound 0.01 µM): 96.2%; viability, T/C (second compound 10 µM, first compound 0.000316 µM): 97.6%; viability, T/C (second compound 10 µM, first compound 0.001 µM): 97.8%; viability, T/C (second compound 10 µM, first compound 0.00316 µM): 99.5%; viability, T/C (second compound 10 µM, first compound 0.01 µM): 95.5%
NS(=O)(=O)OCC1CC(n2ccc3c(NC4CCc5ccccc54)ncnc32)CC1O (stereo not given) + CC(CO)NC(=O)c1cc(-c2ccc(Cl)cc2)nn(-c2cnn(C)c2)c1=O | 196 | 159 | 169 | 174 | 204 | 92.9 | 66.1 | 40.3 | 16.1 | 13 | 11.3 | 79.5 | 58.9 | 37.1 | 85.1 | 61 | 72.1 | 65.3 | 75.7 | 65.7 | viability, T/C [10]: 14.8%; viability, T/C [11]: 11.2%; viability, T/C [12]: 11.5%; viability, T/C [15]: 37.6%; viability, T/C [16]: 14.9%; viability, T/C [17]: 11.5%; viability, T/C [18]: 11.6%; viability, T/C [21]: 33.5%; viability, T/C [22]: 13.7%; viability, T/C [23]: 11.3%; viability, T/C [24]: 11.2%; viability, T/C [27]: 40.7%; viability, T/C [28]: 15.7%; viability, T/C [29]: 12.6%; viability, T/C [30]: 12.6%
O=C(C=Cc1cccc(S(=O)(=O)Nc2ccccc2)c1)NO + CC(CO)NC(=O)c1cc(-c2ccc(Cl)cc2)nn(-c2cnn(C)c2)c1=O | 1050 | 875 | 995 | 819 | 928 | 99.8 | 95.7 | 76 | 52.2 | 23.3 | 6.15 | 101 | 95 | 76.4 | 108 | 101 | 103 | 91.9 | 89.4 | 84.2 | viability, T/C [10]: 45.9%; viability, T/C [11]: 21%; viability, T/C [12]: 6.73%; viability, T/C [15]: 79.1%; viability, T/C [16]: 50%; viability, T/C [17]: 22.3%; viability, T/C [18]: 5.69%; viability, T/C [21]: 72.4%; viability, T/C [22]: 45.7%; viability, T/C [23]: 19.9%; viability, T/C [24]: 5.14%; viability, T/C [27]: 72.4%; viability, T/C [28]: 49.3%; viability, T/C [29]: 19.8%; viability, T/C [30]: 4.82%
